These results are taken from patent US20240059671A1, “TYROSINE KINASE 2 (TYK2) DEGRADATION COMPOUNDS AND METHODS OF USE” (CULLGEN (SHANGHAI), INC., priority 2020, published 2024).

The assay addresses TYK2 (Homo sapiens, UniProt P29597). As to the kind of experiment: TYK2 protein degradation in MOLT-4 cells by immunoblotting. It counts as cell-based. The arrangement: endogenous in cells; host or cells: MOLT-4. Conditions: MOLT-4 cells, 24 hours. How it is done: MOLT-4 cells were treated with compounds at 0.5 and 5 μM concentrations for 24 hours.
MOLT-4 cells were treated with CPD-038, CPD-039, and CPD-040 at 0.04, 0.2, 1, and 5 μM concentrations for 24 hours.
MOLT-4 or NOMO-1 cells were cultured at 37° C. with 5% CO2 in RPMI 1640 Medium supplemented with 10% fetal bovine serum. Cells were authenticated using the short tandem repeat (STR) assays. Mycoplasma test results were negative.
Cultured cells were washed with cold PBS once and lysed in cold RIPA buffer supplemented with protease inhibitors and phosphatase inhibitors (Beyotime Biotechnology). The solutions were then incubated at 4° C. for 30 minutes with gentle agitation to fully lyse cells. Cell lysates were centrifuged at 13,000 rpm for 10 minutes at 4° C. and pellets were discarded. Total protein concentrations in the lysates were determined by BCA assays (Beyotime Biotechnology). Cell lysates were mixed with Laemmli loading buffer to 1× and heated at 99° C. for 5 min. Proteins were resolved on SDS-PAGE and visualized by chemiluminescence. Images were taken by a ChemiDoc MP Imaging system (Bio-Rad). Protein bands were quantitated using the accompanied software provided by Bio-Rad.
The percentage of TYK2 protein degradation of each compound at 0.5 and 5 μM determined in MOLT-4 cells as described in Methods.

Some results are limits rather than exact numbers.

Sequence of TYK2 (P29597 whole entry): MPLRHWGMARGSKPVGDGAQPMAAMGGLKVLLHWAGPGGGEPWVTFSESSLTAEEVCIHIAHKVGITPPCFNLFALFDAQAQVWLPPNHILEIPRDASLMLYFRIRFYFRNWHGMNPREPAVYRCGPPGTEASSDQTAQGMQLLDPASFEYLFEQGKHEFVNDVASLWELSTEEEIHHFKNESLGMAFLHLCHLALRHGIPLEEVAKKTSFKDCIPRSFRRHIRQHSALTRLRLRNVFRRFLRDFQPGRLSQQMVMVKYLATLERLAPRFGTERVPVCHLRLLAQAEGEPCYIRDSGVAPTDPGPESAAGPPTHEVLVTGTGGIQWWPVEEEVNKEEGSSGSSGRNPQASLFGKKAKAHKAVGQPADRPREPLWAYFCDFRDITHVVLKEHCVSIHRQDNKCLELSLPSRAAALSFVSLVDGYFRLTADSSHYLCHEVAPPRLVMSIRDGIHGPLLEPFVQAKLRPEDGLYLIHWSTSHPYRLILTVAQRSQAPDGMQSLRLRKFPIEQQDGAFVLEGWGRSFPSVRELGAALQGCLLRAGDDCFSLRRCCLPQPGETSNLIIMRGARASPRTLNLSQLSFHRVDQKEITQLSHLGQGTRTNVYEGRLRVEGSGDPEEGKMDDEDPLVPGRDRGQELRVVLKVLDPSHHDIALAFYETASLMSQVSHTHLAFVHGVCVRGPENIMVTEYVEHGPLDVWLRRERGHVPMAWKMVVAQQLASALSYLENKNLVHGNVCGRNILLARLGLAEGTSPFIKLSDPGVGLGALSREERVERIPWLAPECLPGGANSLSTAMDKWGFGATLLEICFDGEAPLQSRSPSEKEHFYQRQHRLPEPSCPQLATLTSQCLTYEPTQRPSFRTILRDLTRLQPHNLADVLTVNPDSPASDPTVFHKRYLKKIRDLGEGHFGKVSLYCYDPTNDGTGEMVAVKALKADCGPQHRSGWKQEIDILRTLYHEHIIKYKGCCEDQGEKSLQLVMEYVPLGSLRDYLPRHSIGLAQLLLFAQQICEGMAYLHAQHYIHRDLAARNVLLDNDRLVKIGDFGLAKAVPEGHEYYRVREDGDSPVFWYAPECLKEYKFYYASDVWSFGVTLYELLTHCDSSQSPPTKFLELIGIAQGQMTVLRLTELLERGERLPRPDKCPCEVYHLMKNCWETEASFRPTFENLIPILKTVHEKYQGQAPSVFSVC

Take `CNC(=O)c1nnc(Nc2ccc(N3CCN(C(=O)CC(=O)N[C@H](C(=O)N4C[C@H](O)C[C@H]4C(=O)NCc4ccc(-c5scnc5C)cc4)C(C)(C)C)CC3)cn2)cc1Nc1cccc(-c2ncn(C)n2)c1OC` [CPD-111, 6-((5-(4-(3-(((S)-1-((2S,4R)-4-Hydroxy-2-((4-(4-methylthiazol-5-yl)benzyl)carbamoyl)pyrrolidin-1-yl)-3,3-dimethyl-1-oxobutan-2-yl)amino)-3-oxopropanoyl)piperazin-1-yl)pyridin-2-yl)amino)-4-((2-methoxy-3-(1-methyl-1H-1,2,4-triazol-3-yl)phenyl)amino)-N-methylpyridazine-3-carboxamide]: the “TYK2 Degradation (MOLT-4, 0.5 μM)” value was “B (B: <60% TYK2 degradation, and >20% TYK2 degradation)”; the “TYK2 Degradation (MOLT-4, 5 μM)” value was “B (B: <60% TYK2 degradation, and >20% TYK2 degradation)”.

With `CNC(=O)c1nnc(NC(=O)CNC(=O)CCCCCCCNC(=O)C[C@H](NC(=O)[C@@H]2C[C@@H](O)CN2C(=O)[C@@H](NC(=O)C2(F)CC2)C(C)(C)C)c2ccc(-c3scnc3C)cc2)cc1Nc1cccc(-c2ncn(C)n2)c1OC` [CPD-092, 6-(2-(8-((S)-3-((2S,4R)-1-((S)-2-(1-Fluorocyclopropane-1-carboxamido)-3,3-dimethylbutanoyl)-4-hydroxypyrrolidine-2-carboxamido)-3-(4-(4-methylthiazol-5-yl)phenyl)propanamido)octanamido)acetamido)-4-((2-methoxy-3-(1-methyl-1H-1,2,4-triazol-3-yl)phenyl)amino)-N-methylpyridazine-3-carboxamide], the “TYK2 Degradation (MOLT-4, 0.5 μM)” value was “C (C: ≤20% TYK2 degradation)” and the “TYK2 Degradation (MOLT-4, 5 μM)” value is “C (C: ≤20% TYK2 degradation)”.

Turning to `CNC(=O)c1nnc(NC(=O)CNC(=O)CCOCCOCCOCCOCCNc2cccc3c2C(=O)N(C2CCC(=O)NC2=O)C3=O)cc1Nc1cccc(-c2ncn(C)n2)c1OC` (stereo not drawn) [CPD-052, 6-(1-((2-(2,6-Dioxopiperidin-3-yl)-1,3-dioxoisoindolin-4-yl)amino)-15-oxo-3,6,9,12-tetraoxa-16-azaoctadecan-18-amido)-4-((2-methoxy-3-(1-methyl-1H-1,2,4-triazol-3-yl)phenyl)amino)-N-methylpyridazine-3-carboxamide], the “TYK2 Degradation (0.5 μM)” value was at most 20% and the “TYK2 Degradation (5 μM)” value is recorded as at most 20%.

Take `CNC(=O)c1nnc(NC(=O)CNC(=O)CCCCCCCCCCNC(=O)C[C@H](NC(=O)[C@@H]2C[C@@H](O)CN2C(=O)[C@@H](NC(=O)C2(F)CC2)C(C)(C)C)c2ccc(-c3scnc3C)cc2)cc1Nc1cccc(-c2ncn(C)n2)c1OC` [CPD-095, 6-(2-(11-((S)-3-((2S,4R)-1-((S)-2-(1-Fluorocyclopropane-1-carboxamido)-3,3-dimethylbutanoyl)-4-hydroxypyrrolidine-2-carboxamido)-3-(4-(4-methylthiazol-5-yl)phenyl)propanamido)undecanamido)acetamido)-4-((2-methoxy-3-(1-methyl-1H-1,2,4-triazol-3-yl)phenyl)amino)-N-methylpyridazine-3-carboxamide]: the “TYK2 Degradation (MOLT-4, 0.5 μM)” value is “B (B: <60% TYK2 degradation, and >20% TYK2 degradation)”; the “TYK2 Degradation (MOLT-4, 5 μM)” value is “A (A: ≥60% TYK2 degradation)”.

For `CNC(=O)c1nnc(NC(=O)CNC(=O)CCOCCOCCOCCOCCNc2ccc3c(c2)C(=O)N(C2CCC(=O)NC2=O)C3=O)cc1Nc1cccc(-c2ncn(C)n2)c1OC` (stereo not drawn) [CPD-064, 6-(1-((2-(2,6-Dioxopiperidin-3-yl)-1,3-dioxoisoindolin-5-yl)amino)-15-oxo-3,6,9,12-tetraoxa-16-azaoctadecan-18-amido)-4-((2-methoxy-3-(1-methyl-1H-1,2,4-triazol-3-yl)phenyl)amino)-N-methylpyridazine-3-carboxamide], the “TYK2 Degradation (0.5 μM)” value is listed as at most 20% and the “TYK2 Degradation (5 μM)” value is at most 20%.

Take `CNC(=O)c1nnc(NC(=O)CNC(=O)CCCCCNC(=O)C[C@H](NC(=O)[C@@H]2C[C@@H](O)CN2C(=O)[C@@H](NC(=O)C2(F)CC2)C(C)(C)C)c2ccc(-c3scnc3C)cc2)cc1Nc1cccc(-c2ncn(C)n2)c1OC` [CPD-090, 6-(2-(6-((S)-3-((2S,4R)-1-((S)-2-(1-Fluorocyclopropane-1-carboxamido)-3,3-dimethylbutanoyl)-4-hydroxypyrrolidine-2-carboxamido)-3-(4-(4-methylthiazol-5-yl)phenyl)propanamido)hexanamido)acetamido)-4-((2-methoxy-3-(1-methyl-1H-1,2,4-triazol-3-yl)phenyl)amino)-N-methylpyridazine-3-carboxamide]: the “TYK2 Degradation (MOLT-4, 0.5 μM)” value is reported as “C (C: ≤20% TYK2 degradation)” and the “TYK2 Degradation (MOLT-4, 5 μM)” value is listed as “C (C: ≤20% TYK2 degradation)”.

In the case of `CNC(=O)c1nnc(NC(=O)CNC(=O)CCCCCCCCCC(=O)N[C@H](C(=O)N2C[C@H](O)C[C@H]2C(=O)NCc2ccc(-c3scnc3C)cc2)C(C)(C)C)cc1Nc1cccc(-c2ncn(C)n2)c1OC` [CPD-041, N^1—((S)-1-((2S,4R)-4-Hydroxy-2-((4-(4-methylthiazol-5-yl)benzyl)carbamoyl)pyrrolidin-1-yl)-3,3-dimethyl-1-oxobutan-2-yl)-N^11-(2-((5-((2-methoxy-3-(1-methyl-1H-1,2,4-triazol-3-yl)phenyl)amino)-6-(methylcarbamoyl)pyridazin-3-yl)amino)-2-oxoethyl)undecanediamide], the “TYK2 Degradation (0.5 μM)” value is listed as 50% and the “TYK2 Degradation (5 μM)” value amounted to 30%.

Consider `CNC(=O)c1nnc(NC(=O)C2CC2)cc1Nc1cccc(-c2ncn(CCNC(=O)CCOCCNc3cccc4c3C(=O)N(C3CCC(=O)NC3=O)C4=O)n2)c1OC` (stereo not drawn) [CPD-008, 6-(Cyclopropanecarboxamido)-4-((3-(1-(2-(3-(2-((2-(2,6-dioxopiperidin-3-yl)-1,3-dioxoisoindolin-4-yl)amino)ethoxy)propanamido)ethyl)-1H-1,2,4-triazol-3-yl)-2-methoxyphenyl)amino)-N-methylpyridazine-3-carboxamide], for which the “TYK2 Degradation (0.5 μM)” value is listed as at most 20%.

Consider `CNC(=O)c1nnc(NC(=O)CNC(=O)CCCCNc2ccc3c(c2)C(=O)N(C2CCC(=O)NC2=O)C3=O)cc1Nc1cccc(-c2ncn(C)n2)c1OC` (stereo not drawn) [CPD-057, 6-(2-(5-((2-(2,6-Dioxopiperidin-3-yl)-1,3-dioxoisoindolin-5-yl)amino)pentanamido)acetamido)-4-((2-methoxy-3-(1-methyl-1H-1,2,4-triazol-3-yl)phenyl)amino)-N-methylpyridazine-3-carboxamide], for which the “TYK2 Degradation (0.5 μM)” value is reported as at most 20% and the “TYK2 Degradation (5 μM)” value is on record as at most 20%.

For `CNC(=O)c1nnc(NC(=O)CNC(=O)COCCOCC(=O)N[C@H](C(=O)N2C[C@H](O)C[C@H]2C(=O)NCc2ccc(-c3scnc3C)cc2)C(C)(C)C)cc1Nc1cccc(-c2ncn(C)n2)c1OC` [CPD-027, 6-((S)-13-((2S,4R)-4-Hydroxy-2-((4-(4-methylthiazol-5-yl)benzyl)carbamoyl)pyrrolidine-1-carbonyl)-14,14-dimethyl-4,11-dioxo-6,9-dioxa-3,12-diazapentadecanamido)-4-((2-methoxy-3-(1-methyl-1H-1,2,4-triazol-3-yl)phenyl)amino)-N-methylpyridazine-3-carboxamide], the “TYK2 Degradation (0.5 μM)” value is recorded as at most 20% and the “TYK2 Degradation (5 μM)” value is recorded as at most 20%.

`CNC(=O)c1nnc(NC(=O)C2CC2)cc1Nc1cccc(-c2ncn(CCNC(=O)CCCCCC(=O)N[C@H](C(=O)N3C[C@H](O)C[C@H]3C(=O)NCc3ccc(-c4scnc4C)cc3)C(C)(C)C)n2)c1OC` [CPD-078, N^1-(2-(3-(3-((6-(Cyclopropanecarboxamido)-3-(methylcarbamoyl)pyridazin-4-yl)amino)-2-methoxyphenyl)-1H-1,2,4-triazol-1-yl)ethyl)-N^7-((S)-1-((2S,4R)-4-hydroxy-2-((4-(4-methylthiazol-5-yl)benzyl)carbamoyl)pyrrolidin-1-yl)-3,3-dimethyl-1-oxobutan-2-yl)heptanediamide]: the “TYK2 Degradation (0.5 μM)” value is at most 20% and the “TYK2 Degradation (5 μM)” value is given as at most 20%.

Consider `CNC(=O)c1nnc(NC(=O)C2CC2)cc1Nc1cccc(-c2ncn(CCNC(=O)CCCCCCCC(=O)N[C@H](C(=O)N3C[C@H](O)C[C@H]3C(=O)NCc3ccc(-c4scnc4C)cc3)C(C)(C)C)n2)c1OC` [CPD-080, N^1-(2-(3-(3-((6-(Cyclopropanecarboxamido)-3-(methylcarbamoyl)pyridazin-4-yl)amino)-2-methoxyphenyl)-1H-1,2,4-triazol-1-yl)ethyl)-N^9-((S)-1-((2S,4R)-4-hydroxy-2-((4-(4-methylthiazol-5-yl)benzyl)carbamoyl)pyrrolidin-1-yl)-3,3-dimethyl-1-oxobutan-2-yl)nonanediamide], for which the “TYK2 Degradation (MOLT-4, 0.5 μM)” value is recorded as “C (C: ≤20% TYK2 degradation)” and the “TYK2 Degradation (MOLT-4, 5 μM)” value is listed as “C (C: ≤20% TYK2 degradation)”.

Regarding `CNC(=O)c1nnc(NC(=O)CNC(=O)CNC(=O)C[C@H](NC(=O)[C@@H]2C[C@@H](O)CN2C(=O)[C@@H](NC(=O)C2(F)CC2)C(C)(C)C)c2ccc(-c3scnc3C)cc2)cc1Nc1cccc(-c2ncn(C)n2)c1OC` [CPD-086, 6-(2-(2-((S)-3-((2S,4R)-1-((S)-2-(1-Fluorocyclopropane-1-carboxamido)-3,3-dimethylbutanoyl)-4-hydroxypyrrolidine-2-carboxamido)-3-(4-(4-methylthiazol-5-yl)phenyl)propanamido)acetamido)acetamido)-4-((2-methoxy-3-(1-methyl-1H-1,2,4-triazol-3-yl)phenyl)amino)-N-methylpyridazine-3-carboxamide], the “TYK2 Degradation (MOLT-4, 0.5 μM)” value was “C (C: ≤20% TYK2 degradation)”.
